From patent EP4094762A1, “TREATMENT OF NEUROLOGICAL INDICATIONS” (UCL Business Ltd, priority 2021, dated 2022)
Marks after values point to notes of the source that are not given here.

Tests used:
[1] = CNS penetration: intravenous cassette pharmacokinetic study, brain and plasma by LC-MS/MS; settings: C57B16/J, mouse, in vivo, 0.4 mg/kg
Method: To assess penetration of compounds into the mouse central nervous system, intravenous pharmacokinetic studies were undertaken in C57B16/J mice. […] Compounds were then combined into a single dosing solution and administered together via the intravenous route into 24 mice. Total compound dose administered to each mouse was 2mg/kg. Mice were culled at various times post dosing and brain and plasma collected for bioanalysis. In particular, mice were culled and plasma collected for bioanalysis at 8 time points out to 24 hours post dosing. Brains were also collected for bioanalysis at various time points to assess CNS penetration. 2 hour and 4 hour brain collection was carried out in all studies. Additional time points were collected in selected studies.
For bioanalysis, compounds were prepared in DMSO and aliquoted together to ensure a final concentration of 1mg/mL per compound in DMSO. Analytical standards were prepared from the initial 1mg/mL stock solution of compound, with a 12-point standard curve range from 0.5ng/mL to 2000ng/mL, with independent quality control tests from 1ng/mL to 1000ng/mL run to validate the standards. All standards and QC samples were matrix matched to eliminate possible suppression. Plasma samples were prepared with a 1:10 dilution in plasma. […] Dose solutions were diluted in a control matrix to a relative concentration that fell on the standard curve. Cold acetonitrile containing internal standard was added to all samples, standards, dose samples and QC samples; samples were then centrifuged for 30 minutes at 4000rpm. After centrifugation, supernatant was transferred to a new 96-well plate, diluted with an equal volume of water and mixed thoroughly before LC-MS analysis.
Supernatents were analysed by LC-MS/MS. From the analysis data a response ratio was obtained using the formula Response Ratio = Test Peak Area/Internal Standard Peak Area. From the standard curve, the test peak area was converted to concentration of test compound.
To establish CNS penetration, the ratio of the concentration of each compound in the plasma samples to the brain samples was assessed.

[2] = target: T1, P2Y1 receptor (Homo sapiens, UniProt P47900); test: Cell based HTRF assay measuring IP1 accumulation; antagonism of the P2Y1 agonist MRS2365; settings: rounded to nearest whole number; read-out: IC50 IP1
T1 construct: expressed in transfected cells
Method: IC50 values were determined using a cell based assay in stably transfected cells overexpressing the P2Y1 receptor. The assay system is a high throughput […] assay measuring accumulation of the intracellular messenger inositol monophosphate (IP1), generated intracellularly following activation of P2Y1.
P2Y1 overexpressing cells were maintained in T175 flasks. The day before the assay, these cells were split and 20µl cell suspension transferred to each well of white 384-well assay plates at a cell density of 0.5x10^6 cells/mL. Plates were pulse centrifuged, then incubated overnight at 37°C / 5% CO2 prior to assay.
On day of assay, medium was removed from cells and replaced with stimulation buffer. […] Positive control antagonist curves with standard compounds were included on each plate. Plates were incubated with antagonists for 1 hour prior to addition of 5nM of the agonist MRS2365, dispensed using a Bravo liquid handler. Following agonist addition, plates were incubated for 60 minutes prior to assay. Both incubations were carried out at 37°C / 5% CO2.
For the assay, IP1 accumulation was quantified using the IPOne kit according to manufacturer's instructions. In short, a standard curve was prepared for IP1 quantification, and cells lysed using kit lysis buffer. Assay reagents were added to the lysates, and incubated for 1 hour at room temperature without spinning or shaking. Plates were analysed on a BMG Pherastar plate reader, and IP1 signal generated in cells interpolated from the standard curve.

T1 sequence (P47900 whole entry): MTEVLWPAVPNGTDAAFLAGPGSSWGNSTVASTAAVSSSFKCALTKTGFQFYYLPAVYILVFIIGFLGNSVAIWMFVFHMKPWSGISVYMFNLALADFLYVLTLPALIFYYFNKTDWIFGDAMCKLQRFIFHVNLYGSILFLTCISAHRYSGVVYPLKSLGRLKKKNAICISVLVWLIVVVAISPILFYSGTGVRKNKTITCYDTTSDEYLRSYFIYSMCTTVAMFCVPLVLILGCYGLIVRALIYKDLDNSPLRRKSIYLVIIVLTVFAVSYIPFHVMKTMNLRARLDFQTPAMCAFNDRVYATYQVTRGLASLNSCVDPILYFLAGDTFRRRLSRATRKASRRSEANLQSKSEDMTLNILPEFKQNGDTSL

CC(C)(C)c1ccccc1Oc1ncccc1NC(=O)Nc1ccc(OC(F)(F)F)cc1 [S1 (BPTU), 1-(2-(2-(tert-butyl)phenoxy)pyridin-3-yl)-3-(4-(trifluoromethoxy)phenyl)urea]
CNS penetrant (asterisk) [1]: S1 (BPTU)*

O=C(Nc1ccc(OC(F)(F)F)cc1)Nc1cccnc1Oc1cccc(OCc2ccccc2)c1 [S40]
IC50 [2]: 924 nM

Cc1c(Oc2ncccc2NC(=O)Nc2ccc(OC(F)(F)F)cc2)cccc1N1CCC2(CC1)COC2 [S36]
IC50 [2]: 732 nM

Cc1c(Oc2ncccc2NC(=O)Nc2ccc(OC(F)(F)F)cc2)cccc1S(C)(=O)=O [S75]
IC50 [2]: 6590 nM

Cc1ccccc1Oc1ncc(C(F)F)cc1NC(=O)Nc1ccc(OC(F)(F)F)cc1 [S57]
IC50 [2]: 1990 nM

O=C(Nc1ccc(OC(F)(F)F)cc1)Nc1cccnc1Oc1ccccc1 [S65]
IC50 [2]: 2860 nM

Cc1ccccc1Oc1ncc(NC2CCOCC2)cc1NC(=O)Nc1ccc(OC(F)(F)F)cc1 [S84]
IC50 [2]: 8990 nM

CC(C)(C)c1ccccc1Oc1ncc(Br)cc1NC(=O)Nc1ccc(OC(F)(F)F)cc1 [S29]
IC50 [2]: 514 nM

CC(C)(C)c1ccccc1Oc1ccsc1NC(=O)Nc1ccc(OC(F)(F)F)cc1 [S45]
IC50 [2]: 1060 nM

O=C(Nc1ccc(OC(F)(F)F)cc1)Nc1cccnc1Oc1cccc(N2CCOCC2)c1 [S83]
IC50 [2]: 8730 nM

Cc1cnc(Oc2ccccc2C(C)(C)C)c(NC(=O)Nc2ccc(OC(F)(F)F)cc2)c1 [S13]
IC50 [2]: 151 nM

O=C(Nc1ccc(OC(F)(F)F)cc1)Nc1cccnc1Oc1ccccc1N1CCCCC1 [S33]
IC50 [2]: 632 nM

Cc1c(Oc2ncccc2NC(=O)Nc2ccc(OC(F)(F)F)cc2)cccc1N1CCOCC1 [S23]
IC50 [2]: 332 nM

CC(C)(C)c1ccc(O)c(Oc2ncccc2NC(=O)Nc2ccc(OC(F)(F)F)cc2)c1 [S42]
IC50 [2]: 948 nM

Cn1cc(-c2cnc(Oc3ccccc3C(C)(C)C)c(NC(=O)Nc3ccc(OC(F)(F)F)cc3)c2)cn1 [S48]
IC50 [2]: 1110 nM

CC(C)(C)c1ccccc1Sc1ncccc1NC(=O)Nc1ccc(OC(F)(F)F)cc1 [S3]
IC50 [2]: 57 nM

Cc1c(Oc2ncccc2NC(=O)Nc2ccc(OC(F)(F)F)cc2)cccc1-c1ccc2c(c1)OCCN2 [S49]
IC50 [2]: 1240 nM

CC(C)(C)c1ccccc1Oc1ncc(C#N)cc1NC(=O)Nc1ccc(OC(F)(F)F)cc1 [S19]
IC50 [2]: 264 nM

Cc1c(Oc2ncccc2NC(=O)Nc2ccc(OC(F)(F)F)cc2)cccc1-c1ccc2ccn(C)c2c1 [S37]
IC50 [2]: 778 nM

Cn1cc(-c2cccc(Oc3ncccc3NC(=O)Nc3ccc(OC(F)(F)F)cc3)c2)cn1 [S82]
IC50 [2]: 8180 nM

Cc1ccccc1Oc1ncncc1NC(=O)Nc1ccc(OC(F)(F)F)cc1 [S81]
IC50 [2]: 8120 nM

Cc1c(C#N)cccc1Oc1ncccc1NC(=O)Nc1ccc(OC(F)(F)F)cc1 [S44]
IC50 [2]: 1030 nM

Cc1c(Oc2ncccc2NC(=O)Nc2ccc(OC(F)(F)F)cc2)cccc1N1CCCC1 [S35]
IC50 [2]: 655 nM

CC(C)(C)c1ccccc1Oc1ncncc1NC(=O)Nc1ccc(OC(F)(F)F)cc1 [S18]
IC50 [2]: 236 nM

N#Cc1cccc(Oc2ncccc2NC(=O)Nc2ccc(OC(F)(F)F)cc2)c1 [S73]
IC50 [2]: 5840 nM

CC(C)(C)c1ccccc1Oc1ncc(-c2cccc(C#N)c2)cc1NC(=O)Nc1ccc(OC(F)(F)F)cc1 [S56]
IC50 [2]: 1960 nM

Cc1c(Oc2ncccc2NC(=O)Nc2ccc(OC(F)(F)F)cc2)cccc1-c1ccc(C#N)cc1 [S16]
IC50 [2]: 202 nM

CC(C)(C)c1ccccc1Oc1ncccc1NC(=O)Nc1nc2ccc(Cl)nc2s1 [S17]
IC50 [2]: 209 nM

CC(C)(C)c1ccccc1Oc1ncc(-c2ccc3c(c2)OCCN3)cc1NC(=O)Nc1ccc(OC(F)(F)F)cc1 [S26]
IC50 [2]: 493 nM

CC(C)(C)c1ccccc1Oc1nccc(O)c1NC(=O)Nc1ccccc1 [S54]
IC50 [2]: 1770 nM

Cc1ccnc(Oc2ccccc2C(C)(C)C)c1NC(=O)Nc1ccc(OC(F)(F)F)cc1 [S22]
IC50 [2]: 302 nM

O=C(Nc1ccc(OC(F)(F)F)cc1)Nc1cccnc1Oc1ccccc1S(F)(F)(F)(F)F [S10]
IC50 [2]: 124 nM

CC(C)(C)c1ccccc1Oc1nnccc1NC(=O)Nc1ccc(OC(F)(F)F)cc1 [S53]
IC50 [2]: 1770 nM

Cc1c(Oc2ncccc2NC(=O)Nc2ccc(OC(F)(F)F)cc2)cccc1-c1cnn(C)c1 [S61]
IC50 [2]: 2460 nM

Cc1cnc(Oc2cccc(N3CCCCC3)c2C)c(NC(=O)Nc2ccc(OC(F)(F)F)cc2)c1 [S64]
IC50 [2]: 2810 nM

CC(C)(C)c1ccccc1Oc1ncc(-c2ccc(C#N)cc2)cc1NC(=O)Nc1ccc(OC(F)(F)F)cc1 [S58]
IC50 [2]: 2100 nM

CC(c1ccccc1Oc1ncccc1NC(=O)Nc1ccc(OC(F)(F)F)cc1)N1CCCCC1 (stereo not shown) [S74]
IC50 [2]: 6000 nM
